According to PMC5823845 (Bioorganic & Medicinal Chemistry, 2018):
“Also recorded” adds a separate entry of the source.

Legend:
[1] = Stability and intrinsic clearance in cryopreserved hepatocytes; settings: dog
Protocol: (§2) Reactions were terminated by addition of 100 μL of acetonitrile containing carbamazepine as the analytical internal standard. Samples were centrifuged and the supernatant fractions analysed by LC-MS/MS. The instrument responses (peak heights) were referenced to the zero time-point samples (as 100%) in order to determine the percentage of compound remaining. Ln plots of the % remaining, for each compound, were used to determine the half-life for the hepatocyte incubations.

[2] = biological target: T1, mouse RAR alpha receptor (Mus musculus, UniProt P11416); settings: relative to the amplitude of the normalizing ATRA output
T1 sequence (P11416 183-417 limits assumed): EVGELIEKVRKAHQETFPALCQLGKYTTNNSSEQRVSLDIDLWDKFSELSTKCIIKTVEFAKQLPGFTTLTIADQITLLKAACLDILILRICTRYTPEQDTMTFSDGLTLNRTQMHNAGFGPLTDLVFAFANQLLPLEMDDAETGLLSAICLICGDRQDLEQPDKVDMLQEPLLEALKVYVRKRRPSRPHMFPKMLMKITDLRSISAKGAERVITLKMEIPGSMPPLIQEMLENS

[3] = Intrinsic clearance in liver microsomes; format: in vitro ADME; settings: liver microsomes, 37 °C, NADPH, 45 min, mean of 5
Protocol: The reaction is terminated by the addition of methanol. Following centrifugation, the supernatant is analyzed on the LC-MS/MS. […] The data is the mean on 5 separate experiments.
The ln peak area ratio (compound peak area/internal standard peak area) is plotted against time and the gradient of the line determined.
(see Supplementary data file for details).

[4] = Stability and intrinsic clearance in cryopreserved hepatocytes; settings: rat
Protocol: as §2

[5] = as above; settings: human
Protocol: as §2

[6] = biological target: T2, human RXR β (Homo sapiens, UniProt P28702); experiment: Retinoid X Receptor radioligand binding assay, [3H] 9-cis-retinoic acid; settings: human recombinant receptor
T2 construct: Panlabs Eurofins Pharma Discovery Services (CRO)
T2 sequence (P28702 1-533): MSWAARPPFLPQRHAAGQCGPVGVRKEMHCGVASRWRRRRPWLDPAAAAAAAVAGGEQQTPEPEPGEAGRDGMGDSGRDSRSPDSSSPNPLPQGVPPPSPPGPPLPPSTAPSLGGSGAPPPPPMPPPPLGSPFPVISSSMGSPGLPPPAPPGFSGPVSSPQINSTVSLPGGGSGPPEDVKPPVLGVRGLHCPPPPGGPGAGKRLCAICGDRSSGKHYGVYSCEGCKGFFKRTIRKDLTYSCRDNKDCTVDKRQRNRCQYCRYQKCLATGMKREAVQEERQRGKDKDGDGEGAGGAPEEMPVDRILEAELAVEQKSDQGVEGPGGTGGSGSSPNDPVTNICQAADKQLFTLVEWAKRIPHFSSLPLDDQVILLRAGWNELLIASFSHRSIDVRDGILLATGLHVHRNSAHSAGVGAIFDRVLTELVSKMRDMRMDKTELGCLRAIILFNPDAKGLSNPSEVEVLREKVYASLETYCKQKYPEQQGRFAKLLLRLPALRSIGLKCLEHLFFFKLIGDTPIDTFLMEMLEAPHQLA
Protocol: (§1) [22] The Retinoid X Receptor RXRα and RXRβ radioligand binding assays using [^3H] 9-cis-retinoic acid and the respective human recombinant receptors, were carried out by the CRO Panlabs Eurofins Pharma Discovery Services UK Limited, Gemini Crescent, Dundee Technology Park, Dundee, DD2 1SW.

[7] = biological target: T3, human RXR α (Homo sapiens, UniProt P19793); experiment: as above; settings: human recombinant receptor
T3 construct: Panlabs Eurofins Pharma Discovery Services (CRO)
T3 sequence (P19793 1-462): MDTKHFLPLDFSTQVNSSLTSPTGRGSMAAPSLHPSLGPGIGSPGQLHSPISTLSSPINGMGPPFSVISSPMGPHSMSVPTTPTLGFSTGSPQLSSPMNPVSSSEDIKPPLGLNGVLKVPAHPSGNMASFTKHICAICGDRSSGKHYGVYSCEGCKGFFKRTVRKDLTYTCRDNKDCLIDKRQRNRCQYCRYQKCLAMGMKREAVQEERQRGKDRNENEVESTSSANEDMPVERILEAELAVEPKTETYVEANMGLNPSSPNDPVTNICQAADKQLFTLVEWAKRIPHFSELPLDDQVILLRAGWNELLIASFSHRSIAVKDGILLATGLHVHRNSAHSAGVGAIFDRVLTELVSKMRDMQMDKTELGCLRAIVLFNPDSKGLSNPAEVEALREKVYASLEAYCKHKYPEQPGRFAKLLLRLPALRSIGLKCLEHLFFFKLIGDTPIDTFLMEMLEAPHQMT
Protocol: as §1

[8] = Log D pH 7.4, octanol/buffer shake flask method
Protocol: Briefly, octanol (pre-saturated with buffer) is added to the test compound and sonicated. Buffer at pH 7.4 (presaturated with octanol) is then added to the octanol. […] The system is mixed to allow distribution of the compound between the two phases.
Log D = Log (Coct / Caq ). Where: Coct = Concentration in octanol sample (corrected for dilution) and Caq = Concentration in aqueous sample (corrected for dilution)

[9] = C57 mice, n = 3
Protocol: (§3) Blood was centrifuged to yield plasma for quantification of parent compound using UPLC-MS/MS. […] Terminal blood samples (approximately 300 μL) were subsequently taken by cardiac puncture under CO2 terminal anaesthesia. Once collected, blood samples were transferred to tubes containing 28 μL of citrate as anti-coagulant and held on ice, for <30 minutes, before centrifugation to generate plasma. Plasma samples aliquots (50 μL) were treated with four volumes of acetonitrile, containing diclofenac as analytical internal standard. Precipitated proteins were removed by centrifugation and the supernatant was analysed by UPLC-MS/MS. Pharmacokinetic parameters were determined by non-compartmental analysis using the software package PK Solutions 2.0 from Summit Research Services.

[10] = system: Salmonella Typhimurium (TA98, TA100, and TA1535); experiment: Ames test; format: cell-based; settings: three bacterial strains; presence and absence of S9
Source text: For the first two assays, photometry is used for detection.

[11] = system: COS-7 cells; experiment: Cytotoxicity assay (MTT) in COS-7 cells; format: cell-based; settings: 50-fold multiple of EC50
Protocol: Cytotoxicity Assay: COS-7 cells were plated out on 96 well plates at a density of 8000 cells per well. […] After two days an MTT assay (Promega) was carried out according to the manufacturer’s instructions

[12] = Stability and intrinsic clearance in cryopreserved hepatocytes; settings: cynomolgus monkey
Protocol: as §2

[13] = in vivo; settings: C57, mouse, iv, 1 mg/kg
Protocol: as §3

[14] = system: Salmonella Typhimurium (TA98, TA100, and TA1535); experiment: Bacterial cytotoxicity; format: cell-based; settings: up to 100 μM; presence and absence of S9
Source text: The results for cytotoxicity are expressed as percent of control growth (OD650). A compound with growth less than 60% of control is flagged and considered to be cytotoxic.

[15] = in vivo; settings: male, Beagle, dog, iv, 0.5 mg/kg
Protocol: intravenous (bolus) injection at a dose level of 0.2 mg/kg. […] Intravenous doses were administered by bolus injection into a cephalic vein at a dose volume of 1 mL/kg. Oral doses were administered by gastric intubation at a dose volume of 5 mL/kg. […] Pharmacokinetic parameters were calculated using the computer program Phoenix WinNonlin version 6.3 (Pharsight Corporation, USA).

[16] = biological target: T4, hERG channel (Homo sapiens, UniProt Q12809); experiment: hERG binding assay, displacement of [3H]-astemizole; settings: up to 10 μM
T4 construct: host or cells: HEK293 cells expressing HERG (per the cited method)
Protocol: Interaction with the hERG channel was assessed by displacement of the radioligand [^3H]-astemizole as described by Chiu et al.^3

T4 sequence (Q12809 whole entry): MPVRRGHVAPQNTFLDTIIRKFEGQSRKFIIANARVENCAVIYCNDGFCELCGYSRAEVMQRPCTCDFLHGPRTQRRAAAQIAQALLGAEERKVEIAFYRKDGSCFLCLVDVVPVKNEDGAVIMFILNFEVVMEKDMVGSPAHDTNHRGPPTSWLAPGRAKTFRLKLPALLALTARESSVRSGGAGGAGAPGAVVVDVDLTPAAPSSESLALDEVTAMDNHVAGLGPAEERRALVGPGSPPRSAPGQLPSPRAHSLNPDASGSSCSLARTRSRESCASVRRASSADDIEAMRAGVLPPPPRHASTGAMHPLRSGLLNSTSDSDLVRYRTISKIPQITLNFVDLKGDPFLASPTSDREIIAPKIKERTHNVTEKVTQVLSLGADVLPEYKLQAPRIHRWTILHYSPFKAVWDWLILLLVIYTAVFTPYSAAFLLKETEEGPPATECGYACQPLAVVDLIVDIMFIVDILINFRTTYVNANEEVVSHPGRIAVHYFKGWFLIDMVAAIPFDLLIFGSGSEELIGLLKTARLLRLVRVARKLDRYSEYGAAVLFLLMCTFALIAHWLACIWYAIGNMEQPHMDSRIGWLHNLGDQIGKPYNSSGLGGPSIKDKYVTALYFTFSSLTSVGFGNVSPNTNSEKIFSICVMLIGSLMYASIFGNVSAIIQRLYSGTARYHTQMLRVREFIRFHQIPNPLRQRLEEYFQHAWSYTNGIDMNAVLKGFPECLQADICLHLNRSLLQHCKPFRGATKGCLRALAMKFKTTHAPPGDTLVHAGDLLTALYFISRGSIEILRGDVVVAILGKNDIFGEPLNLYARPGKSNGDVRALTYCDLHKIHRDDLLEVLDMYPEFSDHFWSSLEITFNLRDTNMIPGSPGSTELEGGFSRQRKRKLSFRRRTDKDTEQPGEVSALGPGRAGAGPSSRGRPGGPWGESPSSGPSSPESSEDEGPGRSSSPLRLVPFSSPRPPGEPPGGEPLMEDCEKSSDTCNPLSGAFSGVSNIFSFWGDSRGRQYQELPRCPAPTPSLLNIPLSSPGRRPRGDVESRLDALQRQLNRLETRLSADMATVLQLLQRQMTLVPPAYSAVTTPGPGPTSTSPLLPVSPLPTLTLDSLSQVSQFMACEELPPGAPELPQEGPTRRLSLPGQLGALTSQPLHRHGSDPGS

CCOc1c(Cl)cc(C(=O)Nc2ccc(C(=O)O)c(C)c2)cc1OC(C)C [Compound 56, 4-(3-Chloro-4-ethoxy-5-isopropoxybenzamido)-2-methylbenzoic acid]
half-life at 1 μM [1]: > 7.5 h | half-life at 30 μM [1]: > 7.5 h | hepatocyte CLint at 1 μM [1]: < 3 µL/min/1e6 cells | hepatocyte CLint at 30 μM [1]: < 3 µL/min/1e6 cells | RARα agonist type (partial / full agonist) [2]: full agonist | microsomal CLint ([3]; human microsomes): 5.3 µL/min/mg | microsomal CLint ([3]; mouse microsomes): 37.6 µL/min/mg | half-life at 1 μM [4]: 5.95 h | half-life at 30 μM [4]: > 7.5 h | hepatocyte CLint at 1 μM [4]: 4 µL/min/1e6 cells | hepatocyte CLint at 30 μM [4]: < 3 µL/min/1e6 cells | half-life at 1 μM [5]: > 7.5 h | half-life at 30 μM [5]: > 7.5 h | hepatocyte CLint at 1 μM [5]: < 3 µL/min/1e6 cells | hepatocyte CLint at 30 μM [5]: < 3 µL/min/1e6 cells | IC50 [6]: > 10 µM | IC50 [7]: > 10 µM | logD [8]: 1.8 | po F ([9]; 1 mg/kg iv and po, 1 mg/kg): 84% | iv t1/2 ([9]; 1 mg/kg iv): 1.9 h | po Cmax ([9]; 1 mg/kg po): 2007 ng/mL | po Tmax ([9]; 1 mg/kg po): 0.25 h | Ames test [10]: negative | cytotoxicity in COS-7 cells [11]: no cytotoxicity; also recorded: not cytotoxic | half-life at 1 μM [12]: > 7.5 h | half-life at 30 μM [12]: > 7.5 h | hepatocyte CLint at 1 μM [12]: < 3 µL/min/1e6 cells | hepatocyte CLint at 30 μM [12]: < 3 µL/min/1e6 cells | Vd [13]: 0.3 L/kg | clearance [13]: 4.7 mL/min/kg | bacterial cytotoxicity tests [14]: negative | Vd [15]: 0.66 L/kg | clearance [15]: 2.3 mL/min/kg | binding to hERG [16]: did not show any significant binding; also recorded: no inhibition
